Test results reported in patent EP0687673A1, “Oxazole derivatives as antitumoral agents” (PHARMA MAR, S.A., priority 1994, dated 1995).
In brackets after ≈: the same amount, converted by molar mass.

Assays:
Assay type in all cases: cell-based
[1] = test system: P-388 (suspension culture of a lymphoid neoplasm from DBA/2 mouse); test: Antitumor screening, growth inhibition of P-388 cells; conditions: P388, 72 h, three days of incubation at 37°C, approximate IC₅₀ vs control wells, duplicate
Experimental: (§1) Cells were maintained in logarithmic phase of growth in Eagle's Minimum Essential Medium, with Earle's Balanced Salts, with 2.0 mM L-Glutamine, with non-essential Amino Acids, without Sodium Bicarbonate (EMEM/NEAA); supplemented with 10% Fetal Calf Serum (FCS), 10⁻² M Sodium Bicarbonate and 0,1 g/1 Penicillin-G + Streptomycin Sulfate.
(§2) A simple screening procedure was carried out to determine and compare the antitumor activity of these compounds, using an adapted form of the method described by Bergeron et al., Biochem. Biophys. Res. Comm. (1984) 121 848 [Reference 6]. The antitumor cell employed was P-388 (suspension culture of a lymphoid neoplasm from DBA/2 mouse), A-549 (monolayer culture of a human lung carcinoma), HT-29 (monolayer culture of a human colon carcinoma) and MEL-28 (monolayer culture of a human melanoma).
(§3) P-388 cell were seeded into 16 mm wells at 1 x 10⁴ cells per well in 1 ml aliquots of MEM 5FCS containing the indicated concentration of drug. A separate set of cultures without drug was seeded as control growth to ensure that cells remained in exponential phase of growth. All determinations were carried out in duplicate. After three days of incubation at 37°C, 10% CO₂ in a 98% humid atmosphere, an approximate IC₅₀ was determined by comparing the growth in wells with drug to the growth in control wells.

[2] = test system: A-549 (monolayer culture of a human lung carcinoma); test: Antitumor screening, growth inhibition of A-549 cells (Crystal Violet staining); conditions: A549, 72 h, three days of incubation at 37°C, approximate IC₅₀ vs control wells, duplicate
Experimental: as §1, §2
as §3, with “A-549, HT-29 and MEL-28 were” for “P-388 cell were”, “at 2” for “at 1”, “[…]” for “1 ml”, “MEM 10FCS” for “MEM 5FCS”, “atmosphere, the wells were stained with 0.1% Crystal Violet. An” for “atmosphere, an”

[3] = test system: HT-29 (monolayer culture of a human colon carcinoma); test: Antitumor screening, growth inhibition of HT-29 cells (Crystal Violet staining); conditions: 72 h, three days of incubation at 37°C, approximate IC₅₀ vs control wells, duplicate
Experimental: as §1, §2
as §3, with “A-549, HT-29 and MEL-28 were” for “P-388 cell were”, “at 2” for “at 1”, “[…]” for “1 ml”, “MEM 10FCS” for “MEM 5FCS”, “atmosphere, the wells were stained with 0.1% Crystal Violet. An” for “atmosphere, an”

[4] = test system: MEL-28 (monolayer culture of a human melanoma); test: Antitumor screening, growth inhibition of MEL-28 cells (Crystal Violet staining); conditions: SK-MEL-28, 72 h, three days of incubation at 37°C, approximate IC₅₀ vs control wells, duplicate
Experimental: as §1, §2
as §3, with “A-549, HT-29 and MEL-28 were” for “P-388 cell were”, “at 2” for “at 1”, “[…]” for “1 ml”, “MEM 10FCS” for “MEM 5FCS”, “atmosphere, the wells were stained with 0.1% Crystal Violet. An” for “atmosphere, an”

CCCCCCCCCCCCCCCCCCCCC(=O)OC(CC(OC(C)=O)C(OC(C)=O)C(C)OC(C)=O)c1coc(Cc2cnco2)n1 (stereo not drawn) [Digonazole triacetate (8), Digonazole triacetate]
IC50 [1]: 0.2 µg/mL | IC50 [2]: 0.01 µg/mL | IC50 [3]: 0.02 µg/mL | IC50 [4]: 0.01 µg/mL

CCCCCCCCCCCCCCCCCCCCC(=O)OC(CC(O)C(O)C(C)O)c1coc(Cc2cnco2)n1 (stereo not drawn) [Digonazole (6), Digonazole]
IC50 [1]: 2.5 µg/mL (≈ 4.12 µM) | IC50 [2]: 0.2 µg/mL (≈ 0.33 µM) | IC50 [3]: 0.2 µg/mL (≈ 0.33 µM)

CC(O)C(O)C(O)CC(O)c1coc(Cc2cnco2)n1 (stereo not drawn)
IC50 [1]: > 20 µg/mL | IC50 [2]: 5 µg/mL (≈ 16.8 µM) | IC50 [3]: 5 µg/mL (≈ 16.8 µM) | IC50 [4]: 5 µg/mL (≈ 16.8 µM)

CC(=O)OC(CC(OC(C)=O)C(OC(C)=O)C(C)OC(C)=O)c1coc(Cc2cnco2)n1 (stereo not drawn) [Tetraacetoxyhexyl dioxazole (10), Tetraacetoxyhexyl dioxazole]
IC50 [1]: 10 µg/mL (≈ 21.4 µM) | IC50 [2]: 1 µg/mL (≈ 2.14 µM) | IC50 [3]: 0.5 µg/mL (≈ 1.07 µM) | IC50 [4]: 10 µg/mL (≈ 21.4 µM)
